In patent publication US8188139B2, “Heterocyclic-substituted phenyl methanones” (Hoffman-La Roche Inc., priority 2005, dated 2012):

target: T1, mGlyT-1b (Mus musculus, UniProt P28571); experiment: Glycine uptake inhibition assay (mGlyT-1b); type: cell-based; settings: inhibition of [3H]-glycine uptake in Flp-in-CHO cells transfected with mGlyT-1b cDNA; 20 min preincubation at 22° C.; read-out: IC50 (μM) at GlyT-1
T1 construct: host or cells: Flp-in-CHO
T1 sequence (P28571 1-651 isoform P28571-2): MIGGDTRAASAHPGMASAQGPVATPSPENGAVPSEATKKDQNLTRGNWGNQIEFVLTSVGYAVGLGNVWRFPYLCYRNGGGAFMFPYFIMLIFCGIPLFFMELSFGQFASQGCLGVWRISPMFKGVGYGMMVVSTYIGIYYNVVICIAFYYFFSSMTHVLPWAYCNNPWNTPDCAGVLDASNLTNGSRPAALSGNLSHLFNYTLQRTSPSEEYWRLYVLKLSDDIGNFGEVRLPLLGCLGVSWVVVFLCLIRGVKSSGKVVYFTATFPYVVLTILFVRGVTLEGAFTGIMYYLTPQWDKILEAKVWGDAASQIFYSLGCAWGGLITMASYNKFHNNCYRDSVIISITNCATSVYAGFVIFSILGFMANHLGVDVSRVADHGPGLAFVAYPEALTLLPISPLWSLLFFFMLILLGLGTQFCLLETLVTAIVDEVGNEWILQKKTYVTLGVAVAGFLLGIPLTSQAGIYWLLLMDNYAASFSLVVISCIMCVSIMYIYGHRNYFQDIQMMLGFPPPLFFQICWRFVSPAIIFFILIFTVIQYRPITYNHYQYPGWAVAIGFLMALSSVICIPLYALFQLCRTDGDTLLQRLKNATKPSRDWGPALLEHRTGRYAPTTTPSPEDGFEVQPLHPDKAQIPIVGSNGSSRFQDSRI
Description: DMEM complete medium: Nutrient mixture F-12 (Gibco Life-technologies), fetal bovine serum (FBS) 5%, (Gibco life technologies), Penicillin/Streptomycin1% (Gibco life technologies), Hygromycin 0.6 mg/ml (Gibco life technologies), Glutamine 1 mM Gibco life technologies)
Uptake buffer (UB): 150 mM NaCl, 10 mM Hepes-Tris, pH 7.4, 1 mM CaCl2, 2.5 mM KCl, 2.5 mM MgSO4, 10 mM (+) D-glucose.
Flp-in™-CHO (Invitrogen Cat n^o R758-07) cells stably transfected with mGlyT1b cDNA.
Glycine Uptake Inhibition Assay (mGlyT-1b)
On day 1 mammalian cells, (Flp-in™-CHO), transfected with mGlyT-1b cDNA, were plated at the density of 40,000 cells/well in complete F-12 medium, without hygromycin in 96-well culture plates. On day 2, the medium was aspirated, and the cells were washed twice with uptake buffer (UB). The cells were then incubated for 20 min at 22° C. with either (i) no potential competitor, (ii) 10 mM non-radioactive glycine, (iii) a concentration of a potential inhibitor. A range of concentrations of the potential inhibitor was used to generate data for calculating the concentration of inhibitor resulting in 50% of the effect (e.g. IC50, the concentration of the competitor inhibiting glycine uptake of 50%). A solution was then immediately added containing [^3H]-glycine 60 nM (11-16 Ci/mmol) and 25 μM non-radioactive glycine. The plates were incubated with gentle shaking, and the reaction was stopped by aspiration of the mixture and washing (three times) with ice-cold UB. The cells were lysed with scintillation liquid, shaken 3 hours, and the radioactivity in the cells was counted using a scintillation counter.

Row | IC50 [µM] | SMILES
1 | 0.019 | CS(=O)(=O)c1ccc(-c2ccccc2)c(C(=O)N2CCc3c(C#N)cccc32)c1 [Example 204, 1-(4-Methanesulfonyl-biphenyl-2-carbonyl)-2,3-dihydro-1H-indole-4-carbonitrile]
2 | 0.046 | COC(=O)c1cccc2c1CCN2C(=O)c1cc(S(C)(=O)=O)ccc1O[C@@H](C)C(F)(F)F [Example 205, 1-[5-Methanesulfonyl-2-((S)-2,2,2-trifluoro-1-methyl-ethoxy)-benzoyl]-2,3-dihydro-1H-indole-4-carboxylic acid methyl ester]
3 | 0.041 | COC(=O)c1cccc2c1CCN2C(=O)c1cc(S(C)(=O)=O)ccc1OC(C)C [Example 206, 1-(2-Isopropoxy-5-methanesulfonyl-benzoyl)-2,3-dihydro-1#H!-indole-4-carboxylic acid methyl ester]
4 | 0.034 | C[C@H](Oc1ccc(S(C)(=O)=O)cc1C(=O)N1CCc2c(Br)cccc21)C(F)(F)F [Example 211, (4-Bromo-2,3-dihydro-indol-1-yl)-[5-methanesulfonyl-2-((S)-2,2,2-trifluoro-1-methyl-ethoxy)-phenyl]-methanone]
5 | 0.037 | CCSc1cc2c(cc1C(F)(F)F)CN(C(=O)c1cc(S(C)(=O)=O)ccc1O[C@@H](C)C(F)(F)F)C2 [Example 217, (5-Ethylsulfanyl-6-trifluoromethyl-1,3-dihydro-isoindol-2-yl)-[5-methanesulfonyl-2-((S)-2,2,2-trifluoro-1-methyl-ethoxy)-phenyl]-methanone]
6 | 0.04 | COc1cc2c(cc1Cl)CN(C(=O)c1cc(S(C)(=O)=O)ccc1O[C@H](C)C(F)(F)F)C2 [Example 218, (5-Chloro-6-methoxy-1,3-dihydro-isoindol-2-yl)-[5-methane-sulfonyl-2-((R)-2,2,2-trifluoro-1-methyl-ethoxy)-phenyl]-methanone]
7 | 0.019 | C[C@H](Oc1ccc(S(C)(=O)=O)cc1C(=O)N1Cc2cc(F)c(C(F)(F)F)cc2C1)C(F)(F)F [Example 224, (5-Fluoro-6-trifluoromethyl-1,3-dihydro-isoindol-2-yl)-[5-methanesulfonyl-2-((S)-2,2,2-trifluoro-1-methyl-ethoxy)-phenyl]-methanone]
8 | 0.0456 | CCOc1cc2c(cc1C(F)(F)F)CN(C(=O)c1cc(S(C)(=O)=O)ccc1OC(C)C)C2 [Example 240]

Second part, the compound before the results:

Row | SMILES | IC50 [µM]
9 | CC(C)COc1ccc(S(C)(=O)=O)cc1C(=O)N1Cc2cc(C(F)(F)F)cnc2C1 [Example 125, (2-Isobutoxy-5-methanesulfonyl-phenyl)-(3-trifluoromethyl-5,7-dihydro-pyrrolo[3,4-b]pyridin-6-yl)-methanone] | 0.03
10 | C[C@@H](Oc1ccc(S(C)(=O)=O)cc1C(=O)N1Cc2cc(C(F)(F)F)cnc2C1)C(F)(F)F [Example 139, [5-Methanesulfonyl-2-((R)-2,2,2-trifluoro-1-methyl-ethoxy)-phenyl]-(3-trifluoro-methyl-5,7-dihydro-pyrrolo[3,4-b]pyridin-6-yl)-methanone] | 0.014
11 | CS(=O)(=O)c1ccc(-c2ccc(F)cc2)c(C(=O)N2Cc3cc(C(F)(F)F)cnc3C2)c1 [Example 140, (4′-Fluoro-4-methanesulfonyl-biphenyl-2-yl)-(3-trifluoromethyl-5,7-dihydro-pyrrolo[3,4-b]pyridin-6-yl)-methanone] | 0.036
12 | CS(=O)(=O)c1ccc(-c2ccc(F)c(F)c2)c(C(=O)N2Cc3cnc(C(F)(F)F)cc3C2)c1 [Example 146, (3′,4′-Difluoro-4-methanesulfonyl-biphenyl-2-yl)-(6-trifluoromethyl-1,3-dihydro-pyrrolo[3,4-c]pyridin-2-yl)-methanone] | 0.047
13 | CS(=O)(=O)c1ccc(-c2ccc(F)c(F)c2)c(C(=O)N2Cc3cc(C(F)(F)F)cnc3C2)c1 [Example 148, (3′,4′-Difluoro-4-methanesulfonyl-biphenyl-2-yl)-(3-trifluoromethyl-5,7-dihydro-pyrrolo[3,4-b]pyridin-6-yl)-methanone] | 0.032
14 | CS(=O)(=O)c1ccc(OCC(F)(F)C(F)(F)F)c(C(=O)N2Cc3cnc(C(F)(F)F)cc3C2)c1 [Example 155, [5-Methanesulfonyl-2-(2,2,3,3,3-pentafluoro-propoxy)-phenyl]-(6-trifluoromethyl-1,3-dihydro-pyrrolo[3,4-c]pyridin-2-yl)-methanone] | 0.044
15 | CS(=O)(=O)c1ccc(OCC(F)(F)C(F)F)c(C(=O)N2Cc3cnc(C(F)(F)F)cc3C2)c1 [Example 156, [5-Methanesulfonyl-2-(2,2,3,3-tetrafluoro-propoxy)-phenyl]-(6-trifluoromethyl-1,3-dihydro-pyrrolo[3,4-c]pyridin-2-yl)-methanone] | 0.047
16 | CS(=O)(=O)c1ccc(OCC(F)(F)C(F)(F)F)c(C(=O)N2Cc3cc(C(F)(F)F)cnc3C2)c1 [Example 157, [5-Methanesulfonyl-2-(2,2,3,3,3-pentafluoro-propoxy)-phenyl]-(3-trifluoromethyl-5,7-dihydro-pyrrolo[3,4-b]pyridin-6-yl)-methanone] | 0.025
17 | CS(=O)(=O)c1ccc(OCC(F)(F)C(F)F)c(C(=O)N2Cc3cc(C(F)(F)F)cnc3C2)c1 [Example 158, [5-Methanesulfonyl-2-(2,2,3,3-tetrafluoro-propoxy)-phenyl]-(3-trifluoromethyl-5,7-dihydro-pyrrolo[3,4-b]pyridin-6-yl)-methanone] | 0.024
18 | Cc1nc2c(cc1C(F)(F)F)CN(C(=O)c1cc(S(C)(=O)=O)ccc1O[C@@H](C)C(F)(F)F)C2 [Example 163, [5-Methanesulfonyl-2-((S)-2,2,2-trifluoro-1-methyl-ethoxy)-phenyl]-(2-methyl-3-trifluoromethyl-5,7-dihydro-pyrrolo[3,4-b]pyridin-6-yl)-methanone] | 0.045
19 | Cc1csc(-c2ccc3c(c2)CN(C(=O)c2cc(S(C)(=O)=O)ccc2O[C@@H](C)C(F)(F)F)C3)n1 [Example 168, [5-Methanesulfonyl-2-((S)-2,2,2-trifluoro-1-methyl-ethoxy)-phenyl]-[5-(4-methyl-thiazol-2-yl)-1,3-dihydro-isoindol-2-yl]-methanone] | 0.033
20 | Cc1cc(-c2ccc3c(c2)CN(C(=O)c2cc(S(C)(=O)=O)ccc2O[C@@H](C)C(F)(F)F)C3)ccn1 [Example 169, [5-Methanesulfonyl-2-((S)-2,2,2-trifluoro-1-methyl-ethoxy)-phenyl]-[5-(2-methyl-pyridin-4-yl)-1,3-dihydro-isoindol-2-yl]-methanone] | 0.003
21 | Cc1cc(-c2ccc3c(c2)CN(C(=O)c2cc(S(C)(=O)=O)ccc2O[C@@H](C)C(F)(F)F)C3)cs1 [Example 170, [5-Methanesulfonyl-2-((S)-2,2,2-trifluoro-1-methyl-ethoxy)-phenyl]-[5-(5-methyl-thiophen-3-yl)-1,3-dihydro-isoindol-2-yl]-methanone] | 0.048
22 | C[C@H](Oc1ccc(S(C)(=O)=O)cc1C(=O)N1Cc2ccc(-c3nccs3)cc2C1)C(F)(F)F [Example 172, [5-Methanesulfonyl-2-((S)-2,2,2-trifluoro-1-methyl-ethoxy)-phenyl]-(5-thiazol-2-yl-1,3-dihydro-isoindol-2-yl)-methanone] | 0.03
23 | COc1cc2c(cc1Cl)CN(C(=O)c1cc(S(C)(=O)=O)ccc1OCC(C)C)C2 [Example 221, (5-Chloro-6-methoxy-1,3-dihydro-isoindol-2-yl)-(2-isobutoxy-5-methanesulfonyl-phenyl)-methanone] | 0.022
